Q: Which solubility (mole fraction) (in 1,4-dioxane, 298.15 K) does the source give for `CCC(CO)(CO)C(=O)O` here?
A: 0.122

Q: And the solubility (mole fraction) (in 1,4-dioxane, 303.15 K)?
A: 0.153

Q: And the solubility (mole fraction) (in 1,4-dioxane, 308.15 K)?
A: 0.176

Q: What about the solubility (mole fraction) (in 1,4-dioxane, 313.15 K) of the same compound?
A: 0.201

Q: And the solubility (mole fraction) (in 1,4-dioxane, 318.15 K)?
A: 0.217

Q: And the solubility (mole fraction) (in 1,4-dioxane, 323.15 K)?
A: 0.259

Q: What about the solubility (mole fraction) (in 1,4-dioxane, 328.15 K) of the same compound?
A: 0.324

Q: And the solubility (mole fraction) (in MIBK, 298.15 K)?
A: 0.0218

Q: And the solubility (mole fraction) (in MIBK, 303.15 K)?
A: 0.0297

Q: And the solubility (mole fraction) (in MIBK, 308.15 K)?
A: 0.0362

Q: And the solubility (mole fraction) (in MIBK, 313.15 K)?
A: 0.0433

Q: What about the solubility (mole fraction) (in MIBK, 318.15 K) of the same compound?
A: 0.0523

Q: And the solubility (mole fraction) (in MIBK, 323.15 K)?
A: 0.0575

Q: And the solubility (mole fraction) (in MIBK, 328.15 K)?
A: 0.07

Q: And the solubility (mole fraction) (in MIBK, 333.15 K)?
A: 0.077

Q: What about the solubility (mole fraction) (in MIBK, 338.15 K) of the same compound?
A: 0.0891

Q: And the solubility (mole fraction) (in MIBK, 343.15 K)?
A: 0.11

Q: And the solubility (mole fraction) (in MIBK, 345.15 K)?
A: 0.121

Q: What about the solubility (mole fraction) (in MIBK, 348.15 K) of the same compound?
A: 0.132

Q: And the solubility (mole fraction) (in MIBK, 350.15 K)?
A: 0.156

Q: And the solubility (mole fraction) (in MIBK, 353.15 K)?
A: 0.184

Q: And the solubility (mole fraction) (in cyclopentyl methyl ether, 298.15 K)?
A: 0.0121

Q: And the solubility (mole fraction) (in cyclopentyl methyl ether, 303.15 K)?
A: 0.013

Q: And the solubility (mole fraction) (in cyclopentyl methyl ether, 308.15 K)?
A: 0.0168

Q: What about the solubility (mole fraction) (in cyclopentyl methyl ether, 313.15 K) of the same compound?
A: 0.0208

Q: And the solubility (mole fraction) (in cyclopentyl methyl ether, 318.15 K)?
A: 0.0266

Q: What about the solubility (mole fraction) (in cyclopentyl methyl ether, 323.15 K) of the same compound?
A: 0.032

Q: And the solubility (mole fraction) (in cyclopentyl methyl ether, 328.15 K)?
A: 0.0374

Q: And the solubility (mole fraction) (in cyclopentyl methyl ether, 333.15 K)?
A: 0.0425

Q: And the solubility (mole fraction) (in cyclopentyl methyl ether, 338.15 K)?
A: 0.054

Q: And the solubility (mole fraction) (in cyclopentyl methyl ether, 343.15 K)?
A: 0.0674

Q: What about the solubility (mole fraction) (in cyclopentyl methyl ether, 345.15 K) of the same compound?
A: 0.0749

Q: And the solubility (mole fraction) (in cyclopentyl methyl ether, 348.15 K)?
A: 0.0917

Q: And the solubility (mole fraction) (in cyclopentyl methyl ether, 350.15 K)?
A: 0.107

Q: And the solubility (mole fraction) (in cyclopentyl methyl ether, 353.15 K)?
A: 0.133

Q: And the solubility (mole fraction) (in ethyl acetate, 298.15 K)?
A: 0.0111

Q: What about the solubility (mole fraction) (in ethyl acetate, 303.15 K) of the same compound?
A: 0.0184

Q: And the solubility (mole fraction) (in ethyl acetate, 308.15 K)?
A: 0.0228

Q: And the solubility (mole fraction) (in ethyl acetate, 313.15 K)?
A: 0.0281

Q: And the solubility (mole fraction) (in ethyl acetate, 318.15 K)?
A: 0.0338

Q: And the solubility (mole fraction) (in ethyl acetate, 323.15 K)?
A: 0.0443

Q: And the solubility (mole fraction) (in ethyl acetate, 328.15 K)?
A: 0.0539

Q: What about the solubility (mole fraction) (in ethyl acetate, 333.15 K) of the same compound?
A: 0.0612

Q: What about the solubility (mole fraction) (in ethyl acetate, 338.15 K) of the same compound?
A: 0.069

Q: And the solubility (mole fraction) (in gamma-butyrolactone, 298.15 K)?
A: 0.0688

Q: And the solubility (mole fraction) (in gamma-butyrolactone, 303.15 K)?
A: 0.0859

Q: What about the solubility (mole fraction) (in gamma-butyrolactone, 308.15 K) of the same compound?
A: 0.105

Q: What about the solubility (mole fraction) (in gamma-butyrolactone, 313.15 K) of the same compound?
A: 0.136

Q: What about the solubility (mole fraction) (in gamma-butyrolactone, 318.15 K) of the same compound?
A: 0.151

Q: What about the solubility (mole fraction) (in gamma-butyrolactone, 323.15 K) of the same compound?
A: 0.173

Q: What about the solubility (mole fraction) (in gamma-butyrolactone, 328.15 K) of the same compound?
A: 0.212

Q: What about the solubility (mole fraction) (in gamma-butyrolactone, 333.15 K) of the same compound?
A: 0.232

Q: What about the solubility (mole fraction) (in gamma-butyrolactone, 338.15 K) of the same compound?
A: 0.263

Q: And the solubility (mole fraction) (in n-butyl acetate, 298.15 K)?
A: 0.0119

Q: And the solubility (mole fraction) (in n-butyl acetate, 303.15 K)?
A: 0.0125

Q: What about the solubility (mole fraction) (in n-butyl acetate, 308.15 K) of the same compound?
A: 0.0129

Q: And the solubility (mole fraction) (in n-butyl acetate, 313.15 K)?
A: 0.0153

Q: And the solubility (mole fraction) (in n-butyl acetate, 318.15 K)?
A: 0.0228

Q: What about the solubility (mole fraction) (in n-butyl acetate, 323.15 K) of the same compound?
A: 0.0317

Q: What about the solubility (mole fraction) (in n-butyl acetate, 328.15 K) of the same compound?
A: 0.0379

Q: What about the solubility (mole fraction) (in n-butyl acetate, 333.15 K) of the same compound?
A: 0.0477

Q: What about the solubility (mole fraction) (in n-butyl acetate, 338.15 K) of the same compound?
A: 0.0619

Q: What about the solubility (mole fraction) (in n-butyl acetate, 343.15 K) of the same compound?
A: 0.0768

Q: What about the solubility (mole fraction) (in n-butyl acetate, 345.15 K) of the same compound?
A: 0.093

Q: And the solubility (mole fraction) (in n-butyl acetate, 348.15 K)?
A: 0.111

Q: What about the solubility (mole fraction) (in n-butyl acetate, 350.15 K) of the same compound?
A: 0.132

Q: What about the solubility (mole fraction) (in n-butyl acetate, 353.15 K) of the same compound?
A: 0.169

Q: And the solubility (mole fraction) (in toluene, 298.15 K)?
A: 0.00039

Q: What about the solubility (mole fraction) (in toluene, 303.15 K) of the same compound?
A: 0.00056

Q: And the solubility (mole fraction) (in toluene, 308.15 K)?
A: 0.00073

Q: What about the solubility (mole fraction) (in toluene, 313.15 K) of the same compound?
A: 0.0008

Q: What about the solubility (mole fraction) (in toluene, 318.15 K) of the same compound?
A: 0.00087

Q: And the solubility (mole fraction) (in toluene, 323.15 K)?
A: 0.00093

Q: And the solubility (mole fraction) (in toluene, 328.15 K)?
A: 0.00093

Q: And the solubility (mole fraction) (in toluene, 333.15 K)?
A: 0.00099

Q: And the solubility (mole fraction) (in toluene, 338.15 K)?
A: 0.00105

— BigSolDB 2.1
